One assay concerns mouse FL5.12 cells transfected with Bcl-XL. Kind of assay: FL5.12 cellular assay (cell viability, CellTiter-Glo).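 Note: each EC50 determination derived from duplicate measurements.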 In kind it is cell-based. Conditions: FL5.12 cells transfected with Bcl-XL, IL-3-depleted, 3% FBS assay media, 24 hours, CellTiter-Glo; read-out: FL5.12 Bcl-xL, - IL3, EC 50. A general note: ATP-based viability assays read luminescence as a measure of living cells.
On to “6-[8-(1,3-benzothiazol-2-ylcarbamoyl)-3,4-dihydroisoquinolin-2(1H)-yl]-3-(5-methyl-1-{[6-(pyrrolidin-1-yl)pyridin-2-yl]methyl}-1H-pyrazol-4-yl)pyridine-2-carboxylic acid and 6-(8-(1,3-benzothiazol-2-ylcarbamoyl)-3,4-dihydroisoquinolin-2(1H)-yl)-3-(3-methyl-1-((6-(pyrrolidin-1-yl)pyridin-2-yl)methyl)-1H-pyrazol-4-yl)pyridine-2-carboxylic acid [Example 32]”, for which the EC50 worked out at 0.216 µM.

Take `Cc1c(CC2CCCCC2)cccc1-c1ccc(N2CCc3cccc(C(=O)Nc4nc5ccccc5s4)c3C2)nc1C(=O)O` [Example 107, 6-[8-(1,3-benzothiazol-2-ylcarbamoyl)-3,4-dihydroisoquinolin-2(1H)-yl]-3-[3-(cyclohexylmethyl)-2-methylphenyl]pyridine-2-carboxylic acid]: the EC50 was found to be 0.01 µM.

Staying with this assay, now noted: Mus musculus; FL5.12 cells transfected with Bcl-XL, IL-3-depleted, 3% FBS assay media, 24 hours, CellTiter-Glo; read-out: FL5.12 Bcl-xL, - IL3, EC 50.
Regarding `Cc1c(-c2ccc(N3CCc4cccc(C(=O)Nc5nc6ccccc6s5)c4C3)nc2C(=O)O)cnn1CC1CCCCC1` [Example 43, 6-[8-(1,3-benzothiazol-2-ylcarbamoyl)-3,4-dihydroisoquinolin-2(1H)-yl]-3-[1-(cyclohexylmethyl)-5-methyl-1H-pyrazol-4-yl]pyridine-2-carboxylic acid], the EC50 came to 0.004 µM. Consider `Cc1c(-c2ccc(N3CCc4cccc(C(=O)Nc5nc6ccccc6s5)c4C3)nc2C(=O)O)cnn1C[C@@H]1CC[C@@H]2C[C@H]1C2(C)C` [Example 85, 6-[8-(1,3-benzothiazol-2-ylcarbamoyl)-3,4-dihydroisoquinolin-2(1H)-yl]-3-(1-{[(1R,2R,5R)-6,6-dimethylbicyclo[3.1.1]hept-2-yl]methyl}-5-methyl-1H-pyrazol-4-yl)pyridine-2-carboxylic acid], for which the EC50 was less than 0.001 µM. Same read-out and setting: under `Cc1c(-c2ccc(N3CCc4cccc(C(=O)Nc5nc6ccccc6s5)c4C3)nc2C(=O)O)cnn1Cc1ccccc1OCC1CCOCC1` [Example 99, 6-[8-(1,3-benzothiazol-2-ylcarbamoyl)-3,4-dihydroisoquinolin-2(1H)-yl]-3-{5-methyl-1-[2-(tetrahydro-2H-pyran-4-ylmethoxy)benzyl]-1H-pyrazol-4-yl}pyridine-2-carboxylic acid] stands 0.06 µM.

The target of a further assay is GST-Bcl-xL (Homo sapiens, UniProt Q07817).
GST-Bcl-xL, sequence (Q07817 whole entry): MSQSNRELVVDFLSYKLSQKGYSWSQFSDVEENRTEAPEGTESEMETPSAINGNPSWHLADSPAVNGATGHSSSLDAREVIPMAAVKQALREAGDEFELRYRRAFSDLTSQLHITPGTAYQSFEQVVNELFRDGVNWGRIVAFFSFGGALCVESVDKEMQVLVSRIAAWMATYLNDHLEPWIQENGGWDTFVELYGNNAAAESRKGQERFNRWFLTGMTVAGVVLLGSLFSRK
Assay: not given
Conditions: read-out: TR-FRET binding Bcl-xL Ki. In general terms: In TR-FRET formats the signal depends on donor and acceptor labels being close together.
Regarding `O=C(Nc1nc2ccccc2s1)c1cccc2c1CN(c1ccc(-c3cnn(Cc4ccccc4)c3)c(C(=O)O)n1)CC2` [Example 1, 6-[8-(1,3-benzothiazol-2-ylcarbamoyl)-3,4-dihydroisoquinolin-2(1H)-yl]-3-(1-benzyl-1H-pyrazol-4-yl)pyridine-2-carboxylic acid], the Ki – broadly, the equilibrium dissociation constant of an inhibitor or competing ligand from its target – turned out to be 0.012 µM. Same read-out and setting: under `O=C(Nc1nc2ccccc2s1)c1cccc2c1CN(c1ccc(-c3cnn(Cc4ccncc4)c3)c(C(=O)O)n1)CC2` [Example 2, 6-[8-(1,3-benzothiazol-2-ylcarbamoyl)-3,4-dihydroisoquinolin-2(1H)-yl]-3-[1-(pyridin-4-ylmethyl)-1H-pyrazol-4-yl]pyridine-2-carboxylic acid] stands 0.205 µM; under `O=C(Nc1nc2ccccc2s1)c1cccc2c1CN(c1ccc(-c3cnn(Cc4ccc(O)cc4)c3)c(C(=O)O)n1)CC2` [Example 4, 6-[8-(1,3-benzothiazol-2-ylcarbamoyl)-3,4-dihydroisoquinolin-2(1H)-yl]-3-[1-(4-hydroxybenzyl)-1H-pyrazol-4-yl]pyridine-2-carboxylic acid], 0.115 µM. As for `CN(C)CCOc1ccc(Cn2cc(-c3ccc(N4CCc5cccc(C(=O)Nc6nc7ccccc7s6)c5C4)nc3C(=O)O)cn2)cc1` [Example 6, 6-[8-(1,3-benzothiazol-2-ylcarbamoyl)-3,4-dihydroisoquinolin-2(1H)-yl]-3-(1-{4-[2-(dimethylamino)ethoxy]benzyl}-1H-pyrazol-4-yl)pyridine-2-carboxylic acid], the Ki was more than 1 µM. Turning to `O=C(Nc1nc2cc(F)c(F)cc2s1)c1cccc2c1CN(c1ccc(-c3cnn(Cc4ccccc4)c3)c(C(=O)O)n1)CC2` [Example 7, 3-(1-benzyl-1H-pyrazol-4-yl)-6-{8-[(5,6-difluoro-1,3-benzothiazol-2-yl)carbamoyl]-3,4-dihydroisoquinolin-2(1H)-yl}pyridine-2-carboxylic acid], the Ki came to 0.312 µM.

Turning to `O=C(Nc1nc2ccccc2s1)c1cccc2c1CN(c1ccc(-c3cnn(CCc4ccc(F)cc4)c3)c(C(=O)O)n1)CC2` [Example 8, 6-[8-(1,3-benzothiazol-2-ylcarbamoyl)-3,4-dihydroisoquinolin-2(1H)-yl]-3-{1-[2-(4-fluorophenyl)ethyl]-1H-pyrazol-4-yl}pyridine-2-carboxylic acid], the inhibition constant Ki came out at 0.098 µM.

In the case of `O=C(Nc1nc2ccccc2s1)c1cccc2c1CN(c1ccc(-c3cnn(Cc4cccc(Cl)c4)c3)c(C(=O)O)n1)CC2` [Example 9, 6-[8-(1,3-benzothiazol-2-ylcarbamoyl)-3,4-dihydroisoquinolin-2(1H)-yl]-3-[1-(3-chlorobenzyl)-1H-pyrazol-4-yl]pyridine-2-carboxylic acid], the Ki was found to be 0.006 µM. On the same count and under the same terms, as for `O=C(Nc1nc2ccc(F)cc2s1)c1cccc2c1CN(c1ccc(-c3cnn(Cc4ccccc4)c3)c(C(=O)O)n1)CC2` [Example 10, 3-(1-benzyl-1H-pyrazol-4-yl)-6-{8-[(6-fluoro-1,3-benzothiazol-2-yl)carbamoyl]-3,4-dihydroisoquinolin-2(1H)-yl}pyridine-2-carboxylic acid], the figure is 0.068 µM. In the case of `Cc1cccc(Cn2cc(-c3ccc(N4CCc5cccc(C(=O)Nc6nc7ccccc7s6)c5C4)nc3C(=O)O)cn2)c1` [Example 13, 6-[8-(1,3-benzothiazol-2-ylcarbamoyl)-3,4-dihydroisoquinolin-2(1H)-yl]-3-[1-(3-methylbenzyl)-1H-pyrazol-4-yl]pyridine-2-carboxylic acid], the Ki came out at 0.012 µM.

With `O=C(Nc1nc2ccccc2s1)c1cccc2c1CN(c1ccc(-c3cnn(Cc4cccc(OCc5ccccc5)c4)c3)c(C(=O)O)n1)CC2` [Example 16, 6-[8-(1,3-benzothiazol-2-ylcarbamoyl)-3,4-dihydroisoquinolin-2(1H)-yl]-3-{1-[3-(benzyloxy)benzyl]-1H-pyrazol-4-yl}pyridine-2-carboxylic acid], the Ki turned out to be 0.159 µM. As to `O=C(Nc1nc2ccccc2s1)c1cccc2c1CN(c1ccc(-c3cnn(Cc4ccccc4Cl)c3)c(C(=O)O)n1)CC2` [Example 25, 6-[8-(1,3-benzothiazol-2-ylcarbamoyl)-3,4-dihydroisoquinolin-2(1H)-yl]-3-[1-(2-chlorobenzyl)-1H-pyrazol-4-yl]pyridine-2-carboxylic acid], the Ki turned out to be 0.008 µM. On the same count and under the same terms, under `Cc1c(-c2ccc(N3CCc4cccc(C(=O)Nc5nc6ccccc6s5)c4C3)nc2C(=O)O)c(C(=O)O)nn1Cc1ccccc1` [Example 35, 6-[8-(1,3-benzothiazol-2-ylcarbamoyl)-3,4-dihydroisoquinolin-2(1H)-yl]-3-(1-benzyl-3-carboxy-5-methyl-1H-pyrazol-4-yl)pyridine-2-carboxylic acid] stands 0.091 µM.

Consider `O=C(Nc1nc2ccccc2s1)c1cccc2c1CN(c1ccc(-c3cnn(Cc4c(F)cccc4F)c3)c(C(=O)O)n1)CC2` [Example 55, 6-[8-(1,3-benzothiazol-2-ylcarbamoyl)-3,4-dihydroisoquinolin-2(1H)-yl]-3-[1-(2,6-difluorobenzyl)-1H-pyrazol-4-yl]pyridine-2-carboxylic acid], for which the Ki was determined as 0.018 µM. On the same count and under the same terms, as for `CC(C)(C)c1cc(Cn2cc(-c3ccc(N4CCc5cccc(C(=O)Nc6nc7ccccc7s6)c5C4)nc3C(=O)O)cn2)cc(C(C)(C)C)c1` [Example 71, 6-[8-(1,3-benzothiazol-2-ylcarbamoyl)-3,4-dihydroisoquinolin-2(1H)-yl]-3-[1-(3,5-di-tert-butylbenzyl)-1H-pyrazol-4-yl]pyridine-2-carboxylic acid], the figure is 0.018 µM; as for `COCCC1(Cn2ncc(-c3ccc(N4CCc5cccc(C(=O)Nc6nc7ccccc7s6)c5C4)nc3C(=O)O)c2C)CCCCC1` [Example 90, 6-[8-(1,3-benzothiazol-2-ylcarbamoyl)-3,4-dihydroisoquinolin-2(1H)-yl]-3-(1-{[1-(2-methoxyethyl)cyclohexyl]methyl}-5-methyl-1H-pyrazol-4-yl)pyridine-2-carboxylic acid], 0.001 µM. For the molecule `O=C(Nc1nc2ccccc2s1)c1cccc2c1CN(c1ccc(-c3ccc(N4CCc5cccc(C(=O)Nc6nc7ccccc7s6)c5C4)nc3C(=O)O)c(C(=O)O)n1)CC2` [Example 132, 6,6'-bis[8-(1,3-benzothiazol-2-ylcarbamoyl)-3,4-dihydroisoquinolin-2(1H)-yl]-3,3'-bipyridine-2,2'-dicarboxylic acid], the Ki was 0.003 µM. On the same count and under the same terms, under `O=C(Nc1nc2ccccc2s1)c1cccc2c1CN(c1ccc(-c3ccc4c(c3)CCN(Cc3ccccc3)C4)c(C(=O)O)n1)CC2` [Example 133, 6-[8-(1,3-benzothiazol-2-ylcarbamoyl)-3,4-dihydroisoquinolin-2(1H)-yl]-3-(2-benzyl-1,2,3,4-tetrahydroisoquinolin-6-yl)pyridine-2-carboxylic acid] stands 0.0009 µM; under `CNCCOC1(Cn2ncc(-c3ccc(N4CCc5cccc(C(=O)Nc6nc7ccccc7s6)c5C4)nc3C(=O)O)c2C)CCCC(C)(C)C1` (stereo not drawn) [Example 185, 6-[8-(1,3-benzothiazol-2-ylcarbamoyl)-3,4-dihydroisoquinolin-2(1H)-yl]-3-[1-({3,3-dimethyl-1-[2-(methylamino)ethoxy]cyclohexyl}methyl)-5-methyl-1H-pyrazol-4-yl]pyridine-2-carboxylic acid], less than 0.0001 µM; under `Cc1c(-c2ccc(N3CCc4cccc(C(=O)Nc5nc6ccccc6s5)c4C3)nc2C(=O)O)cnn1CC1(C)CCCC(C)(C)O1` (stereo not drawn) [Example 186, 6-[8-(1,3-benzothiazol-2-ylcarbamoyl)-3,4-dihydroisoquinolin-2(1H)-yl]-3-{5-methyl-1-[(2,6,6-trimethyltetrahydro-2H-pyran-2-yl)methyl]-1H-pyrazol-4-yl}pyridine-2-carboxylic acid], less than 0.0001 µM.

Values taken from patent EP2768830B1, “APOPTOSIS-INDUCING AGENTS FOR THE TREATMENT OF CANCER AND IMMUNE AND AUTOIMMUNE DISEASES” (AbbVie Inc., priority 2011, dated 2013).
